Source: US10131652B2, “Pyrimidinyloxy benzene derivatives as herbicides” (E. I. DU PONT DE NEMOURS AND COMPANY, priority 2014, dated 2018)
Where two headings read alike, the source gives them in different places.

Columns and labels:
Assay in all cases: Test E pre-/postemergence plant response
Type in all cases: in vivo
[1] = system: bluegrass (annual bluegrass, Poa annua); details: scale 0 to 100, read-out: Plant response rating, Bluegrass; for pest or weed control at 16 g/ha: 16 g ai/ha; for pest or weed control at 31 g/ha: 31 g ai/ha; for pest or weed control at 62 g/ha: 62 g ai/ha; for pest or weed control at 125 g/ha: 125 g ai/ha
In short: (§1)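 Pre-emergence: seeds sown in silt loam soil and sprayed with test chemicals in a non-phytotoxic solvent/surfactant mix. Post-emergence: plants at 2–18 cm (1- to 4-leaf stage) in peat/vermiculite medium treated with the same formulation. Visual rating versus controls after 7–21 days, 0 (no effect) to 100 (complete control).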

[2] = system: deadnettle (henbit deadnettle, Lamium amplexicaule); details: pre-emergence, Preemergence, scale 0 to 100, read-out: Plant response rating, Deadnettle
In short: as §1

[3] = system: field violet (Viola arvensis); details: scale 0 to 100, read-out: Plant response rating, Field Violet; for pest or weed control at 16 g/ha: 16 g ai/ha; for pest or weed control at 31 g/ha: 31 g ai/ha; for pest or weed control at 62 g/ha: 62 g ai/ha; for pest or weed control at 125 g/ha: 125 g ai/ha
In short: as §1

[4] = system: galium (catchweed bedstraw, Galium aparine); details: scale 0 to 100, read-out: Plant response rating, Galium; for pest or weed control at 16 g/ha: 16 g ai/ha; for pest or weed control at 31 g/ha: 31 g ai/ha; for pest or weed control at 62 g/ha: 62 g ai/ha; for pest or weed control at 125 g/ha: 125 g ai/ha
In short: as §1

[5] = system: green foxtail (Setaria viridis); details: scale 0 to 100, read-out: Plant response rating, Foxtail, Green; for pest or weed control at 16 g/ha: 16 g ai/ha; for pest or weed control at 31 g/ha: 31 g ai/ha; for pest or weed control at 62 g/ha: 62 g ai/ha; for pest or weed control at 125 g/ha: 125 g ai/ha
In short: as §1

[6] = system: lambsquarters (Chenopodium album); details: scale 0 to 100, read-out: Plant response rating, Lambsquarters; for pest or weed control at 16 g/ha: 16 g ai/ha; for pest or weed control at 31 g/ha: 31 g ai/ha; for pest or weed control at 62 g/ha: 62 g ai/ha; for pest or weed control at 125 g/ha: 125 g ai/ha
In short: as §1

[7] = system: oilseed rape (Brassica napus); details: scale 0 to 100, read-out: Plant response rating, Oilseed Rape; for plant injury at 16 g/ha: 16 g ai/ha; for plant injury at 31 g/ha: 31 g ai/ha; for plant injury at 62 g/ha: 62 g ai/ha; for plant injury at 125 g/ha: 125 g ai/ha
In short: as §1

[8] = system: spring wheat (Triticum aestivum); details: scale 0 to 100, read-out: Plant response rating, Wheat, Spring; for plant injury at 16 g/ha: 16 g ai/ha; for plant injury at 62 g/ha: 62 g ai/ha; for plant injury at 125 g/ha: 125 g ai/ha
In short: as §1

[9] = system: wild oat (Avena fatua); details: scale 0 to 100, read-out: Plant response rating, Oat, Wild; for pest or weed control at 16 g/ha: 16 g ai/ha; for pest or weed control at 31 g/ha: 31 g ai/ha; for pest or weed control at 62 g/ha: 62 g ai/ha; for pest or weed control at 125 g/ha: 125 g ai/ha
In short: as §1

[10] = system: wild radish (Raphanus raphanistrum); details: scale 0 to 100, read-out: Plant response rating, Radish, Wild; for pest or weed control at 16 g/ha: 16 g ai/ha; for pest or weed control at 31 g/ha: 31 g ai/ha; for pest or weed control at 62 g/ha: 62 g ai/ha; for pest or weed control at 125 g/ha: 125 g ai/ha
In short: as §1

[11] = system: winter wheat (Triticum aestivum); details: scale 0 to 100, read-out: Plant response rating, Wheat, Winter; for plant injury at 16 g/ha: 16 g ai/ha; for plant injury at 62 g/ha: 62 g ai/ha; for plant injury at 125 g/ha: 125 g ai/ha
In short: as §1

[12] = post-emergence, 31 g ai/ha, Postemergence

For `Fc1cccc(Oc2ncc(Cl)cn2)c1-c1cc(C(F)F)no1` [Compound 144, 5-chloro-2-[2-[3-(difluoromethyl)-5-isoxazolyl]-3-fluorophenoxy]pyrimidine], the pest or weed control at 16 g/ha ([1]; post-emergence, Postemergence) was 25%, the pest or weed control at 31 g/ha ([1]; post-emergence, Postemergence) was 45% and the pest or weed control at 62 g/ha ([1]; post-emergence, Postemergence) was 55%. The pest or weed control at 125 g/ha ([1]; post-emergence, Postemergence) was 65%, the pest or weed control at 16 g/ha ([1]; pre-emergence, Preemergence) was 10% and the pest or weed control at 31 g/ha ([1]; pre-emergence, Preemergence) was 15%. It also gave a pest or weed control at 62 g/ha ([1]; pre-emergence, Preemergence) of 40%, a pest or weed control at 125 g/ha ([1]; pre-emergence, Preemergence) of 85% and a pest or weed control at 16 g/ha ([2]; 16 g ai/ha) of 90%. The pest or weed control at 31 g/ha ([2]; 31 g ai/ha) was 100%, the pest or weed control at 62 g/ha ([2]; 62 g ai/ha) was 100% and the pest or weed control at 125 g/ha ([2]; 125 g ai/ha) was 100%. It also gave a pest or weed control at 16 g/ha ([3]; post-emergence, Postemergence) of 95%, a pest or weed control at 31 g/ha ([3]; post-emergence, Postemergence) of 90% and a pest or weed control at 62 g/ha ([3]; post-emergence, Postemergence) of 100%. For the same molecule, the pest or weed control at 125 g/ha ([3]; post-emergence, Postemergence) was 100%, the pest or weed control at 16 g/ha ([3]; pre-emergence, Preemergence) was 95% and the pest or weed control at 31 g/ha ([3]; pre-emergence, Preemergence) was 100%. It also gave a pest or weed control at 62 g/ha ([3]; pre-emergence, Preemergence) of 100%, a pest or weed control at 125 g/ha ([3]; pre-emergence, Preemergence) of 100% and a pest or weed control at 16 g/ha ([4]; post-emergence, Postemergence) of 80%. It also gave a pest or weed control at 31 g/ha ([4]; post-emergence, Postemergence) of 95%, a pest or weed control at 62 g/ha ([4]; post-emergence, Postemergence) of 100% and a pest or weed control at 125 g/ha ([4]; post-emergence, Postemergence) of 100%. For the same molecule, the pest or weed control at 16 g/ha ([4]; pre-emergence, Preemergence) was 20%, the pest or weed control at 31 g/ha ([4]; pre-emergence, Preemergence) was 70% and the pest or weed control at 62 g/ha ([4]; pre-emergence, Preemergence) was 100%. For the same molecule, the pest or weed control at 125 g/ha ([4]; pre-emergence, Preemergence) was 100%, the pest or weed control at 16 g/ha ([5]; post-emergence, Postemergence) was 40% and the pest or weed control at 31 g/ha ([5]; post-emergence, Postemergence) was 50%. It also gave a pest or weed control at 62 g/ha ([5]; post-emergence, Postemergence) of 80%, a pest or weed control at 125 g/ha ([5]; post-emergence, Postemergence) of 100% and a pest or weed control at 16 g/ha ([5]; pre-emergence, Preemergence) of 20%. For the same molecule, the pest or weed control at 31 g/ha ([5]; pre-emergence, Preemergence) was 35%, the pest or weed control at 62 g/ha ([5]; pre-emergence, Preemergence) was 95% and the pest or weed control at 125 g/ha ([5]; pre-emergence, Preemergence) was 100%. The pest or weed control at 16 g/ha ([6]; post-emergence, Postemergence) was 80%, the pest or weed control at 31 g/ha ([6]; post-emergence, Postemergence) was 95% and the pest or weed control at 62 g/ha ([6]; post-emergence, Postemergence) was 98%. It also gave a pest or weed control at 125 g/ha ([6]; post-emergence, Postemergence) of 100%, a pest or weed control at 16 g/ha ([6]; pre-emergence, Preemergence) of 100% and a pest or weed control at 31 g/ha ([6]; pre-emergence, Preemergence) of 100%. For the same molecule, the pest or weed control at 62 g/ha ([6]; pre-emergence, Preemergence) was 100%, the pest or weed control at 125 g/ha ([6]; pre-emergence, Preemergence) was 100% and the plant injury at 16 g/ha ([7]; post-emergence, Postemergence) was 100%. For the same molecule, the plant injury at 31 g/ha ([7]; post-emergence, Postemergence) was 100%, the plant injury at 62 g/ha ([7]; post-emergence, Postemergence) was 100% and the plant injury at 125 g/ha ([7]; post-emergence, Postemergence) was 100%. It also gave a plant injury at 16 g/ha ([7]; pre-emergence, Preemergence) of 35%, a plant injury at 31 g/ha ([7]; pre-emergence, Preemergence) of 80% and a plant injury at 62 g/ha ([7]; pre-emergence, Preemergence) of 100%. For the same molecule, the plant injury at 125 g/ha ([7]; pre-emergence, Preemergence) was 100%, the plant injury at 16 g/ha ([8]; post-emergence, Postemergence) was 25% and the plant injury at 31 g/ha [8, 12] was 35%. The plant injury at 62 g/ha ([8]; post-emergence, Postemergence) was 45%, the plant injury at 125 g/ha ([8]; post-emergence, Postemergence) was 75% and the plant injury at 16 g/ha ([8]; pre-emergence, Preemergence) was 5%. The plant injury at 62 g/ha ([8]; pre-emergence, Preemergence) was 40%, the plant injury at 125 g/ha ([8]; pre-emergence, Preemergence) was 55% and the pest or weed control at 16 g/ha ([9]; post-emergence, Postemergence) was 20%. For the same molecule, the pest or weed control at 31 g/ha ([9]; post-emergence, Postemergence) was 25%, the pest or weed control at 62 g/ha ([9]; post-emergence, Postemergence) was 65% and the pest or weed control at 125 g/ha ([9]; post-emergence, Postemergence) was 90%. The pest or weed control at 16 g/ha ([9]; pre-emergence, Preemergence) was 35%, the pest or weed control at 31 g/ha ([9]; pre-emergence, Preemergence) was 30% and the pest or weed control at 62 g/ha ([9]; pre-emergence, Preemergence) was 65%. It also gave a pest or weed control at 125 g/ha ([9]; pre-emergence, Preemergence) of 75%, a pest or weed control at 16 g/ha ([10]; post-emergence, Postemergence) of 100% and a pest or weed control at 31 g/ha ([10]; post-emergence, Postemergence) of 100%. It also gave a pest or weed control at 62 g/ha ([10]; post-emergence, Postemergence) of 100%, a pest or weed control at 125 g/ha ([10]; post-emergence, Postemergence) of 100% and a pest or weed control at 16 g/ha ([10]; pre-emergence, Preemergence) of 80%. The pest or weed control at 31 g/ha ([10]; pre-emergence, Preemergence) was 80%, the pest or weed control at 62 g/ha ([10]; pre-emergence, Preemergence) was 100% and the pest or weed control at 125 g/ha ([10]; pre-emergence, Preemergence) was 100%. It also gave a plant injury at 16 g/ha ([11]; post-emergence, Postemergence) of 20%, a plant injury at 31 g/ha [11, 12] of 30% and a plant injury at 62 g/ha ([11]; post-emergence, Postemergence) of 35%. It also gave a plant injury at 125 g/ha ([11]; post-emergence, Postemergence) of 70%, a plant injury at 16 g/ha ([11]; pre-emergence, Preemergence) of 0% and a plant injury at 62 g/ha ([11]; pre-emergence, Preemergence) of 25%. For the same molecule, the plant injury at 125 g/ha ([11]; pre-emergence, Preemergence) was 35%.
